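96-well plates; 48 h exposure; 5 concentrations. Endpoints by linear interpolation between flanking doses. Not reached: highest tested concentration assigned. GI50: concentration for 50% inhibition of growth. At the TGI there is no net growth.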
Assays:
Test in all cases: NCI tumour cell line growth inhibition, 48 h
[1] = test system: SK-MEL-5 melanoma
[2] = test system: MCF7 breast
[3] = test system: OVCAR-3 ovarian
[4] = test system: NCI-H23 lung
[5] = test system: SN12C renal
[6] = test system: U251 CNS
[7] = test system: ACHN renal
[8] = test system: MDA-MB-231 breast
[9] = test system: T-47D breast
[10] = test system: NCI-H460 lung
[11] = test system: OVCAR-8 ovarian
[12] = test system: SNB-19 CNS
[13] = test system: TK-10 renal
[14] = test system: UACC-257 melanoma
[15] = test system: HCC-2998 colon
[16] = test system: HT29 colon
[17] = test system: RXF 393 renal
[18] = test system: HOP-62 NSCLC
[19] = test system: SK-MEL-28 melanoma
[20] = test system: HS 578T breast
[21] = test system: OVCAR-5 ovarian
[22] = test system: OVCAR-4 ovarian
[23] = test system: DU-145 prostate
[24] = test system: A549 NSCLC
[25] = test system: NCI-H522 lung
[26] = test system: 786-0 renal
[27] = test system: A498 renal
[28] = test system: MDA-MB-435
[29] = test system: SW-620 colon
[30] = test system: EKVX NSCLC
[31] = test system: SF-295 CNS
[32] = test system: LOX IMVI melanoma
[33] = test system: HL-60(TB) leukemia
[34] = test system: HCT-116 colon
[35] = test system: CAKI-1 renal
[36] = test system: K-562 leukemia
[37] = test system: SR leukemia
[38] = test system: HOP-92 NSCLC
[39] = test system: NCI/ADR-RES ovarian
[40] = test system: BT-549 breast
[41] = test system: HCT-15 colon
[42] = test system: UACC-62 melanoma
[43] = test system: SNB-75 CNS
[44] = test system: KM12 colon
[45] = test system: NCI-H226 lung
[46] = test system: SK-MEL-2 melanoma
[47] = test system: SK-OV-3 ovarian
[48] = test system: CCRF-CEM leukemia
[49] = test system: SF-539 CNS
[50] = test system: SF-268 CNS
[51] = test system: MOLT-4 leukemia
[52] = test system: COLO 205 colon
[53] = test system: PC-3 prostate
[54] = test system: M14 melanoma
[55] = test system: UO-31 renal
[56] = test system: RPMI-8226 leukemia
[57] = test system: IGROV1 ovarian
[58] = test system: MALME-3M melanoma

Compound `O=[N+]([O-])c1ccc(N=Nc2c(Cl)cc(O)cc2Cl)cc1` has a GI50 [1] of 1480 nM, a TGI [1] of 3550 nM and a GI50 [2] of 1170 nM. For the same compound, the TGI [2] was 6430 nM, the GI50 [3] was 462 nM and the TGI [3] was 2470 nM. For the same compound, the GI50 [4] was 1720 nM, the TGI [4] was 6710 nM and the GI50 [5] was 875 nM. It also gave a TGI [5] of 10300 nM, a GI50 [6] of 977 nM and a TGI [6] of 11200 nM. It also gave a GI50 [7] of 1010 nM, a TGI [7] of 11600 nM and a GI50 [8] of 700 nM. The TGI [8] was 4860 nM, the GI50 [9] was 657 nM and the TGI [9] was 5460 nM. For the same compound, the GI50 [10] was 1410 nM, the TGI [10] was 4770 nM and the GI50 [11] was 1090 nM. For the same compound, the TGI [11] was 5630 nM, the GI50 [12] was 1940 nM and the TGI [12] was 15700 nM. For the same compound, the GI50 [13] was 4340 nM, the TGI [13] was 25800 nM and the GI50 [14] was 1650 nM. It also gave a TGI [14] of 4490 nM, a GI50 [15] of 3150 nM and a TGI [15] of 10800 nM. It also gave a GI50 [16] of 3700 nM, a TGI [16] of 12600 nM and a GI50 [17] of 2510 nM. The TGI [17] was 13500 nM, the GI50 [18] was 2170 nM and the TGI [18] was 5870 nM. For the same compound, the GI50 [19] was 1920 nM, the TGI [19] was 8550 nM and the GI50 [20] was 1110 nM. It also gave a TGI [20] of 9060 nM, a GI50 [21] of 4220 nM and a TGI [21] of 16500 nM. For the same compound, the GI50 [22] was 1390 nM, the TGI [22] was 12000 nM and the GI50 [23] was 2450 nM. It also gave a TGI [23] of 11900 nM, a GI50 [24] of 2880 nM and a TGI [24] of 11800 nM. For the same compound, the GI50 [25] was 473 nM, the TGI [25] was 4090 nM and the GI50 [26] was 2220 nM. For the same compound, the TGI [26] was 9360 nM, the GI50 [27] was 1730 nM and the TGI [27] was 4600 nM. It also gave a GI50 [28] of 943 nM, a TGI [28] of 3160 nM and a GI50 [29] of 1600 nM. It also gave a TGI [29] of 10300 nM, a GI50 [30] of 1940 nM and a TGI [30] of 5570 nM. It also gave a GI50 [31] of 1560 nM, a TGI [31] of 3060 nM and a GI50 [32] of 1730 nM. For the same compound, the TGI [32] was 10600 nM, the GI50 [33] was 382 nM and the TGI [33] was 2860 nM. It also gave a GI50 [34] of 722 nM, a TGI [34] of 3080 nM and a GI50 [35] of 2260 nM. It also gave a TGI [35] of 5790 nM, a GI50 [36] of 605 nM and a TGI [36] of over 100000 nM. For the same compound, the GI50 [37] was 421 nM, the TGI [37] was 6090 nM and the GI50 [38] was 285 nM. It also gave a TGI [38] of 2010 nM, a GI50 [39] of 863 nM and a TGI [39] of 8490 nM. It also gave a GI50 [40] of 1670 nM, a TGI [40] of 6410 nM and a GI50 [41] of 2020 nM. The TGI [41] was 10300 nM, the GI50 [42] was 1390 nM and the TGI [42] was 3590 nM. For the same compound, the GI50 [43] was over 100000 nM, the TGI [43] was over 100000 nM and the GI50 [44] was 1410 nM. For the same compound, the TGI [44] was 3360 nM, the GI50 [45] was 2830 nM and the TGI [45] was 11300 nM. For the same compound, the GI50 [46] was 1660 nM, the TGI [46] was 4390 nM and the GI50 [47] was 2100 nM. It also gave a TGI [47] of 10300 nM, a GI50 [48] of 571 nM and a TGI [48] of 7250 nM. For the same compound, the GI50 [49] was 3100 nM, the TGI [49] was 30600 nM and the GI50 [50] was 1180 nM. For the same compound, the TGI [50] was 7730 nM, the GI50 [51] was 435 nM and the TGI [51] was 2990 nM. The GI50 [52] was 1820 nM, the TGI [52] was 4170 nM and the GI50 [53] was 2720 nM. For the same compound, the TGI [53] was 15400 nM, the GI50 [54] was 1950 nM and the TGI [54] was 4860 nM.
Compound `O=C(c1ccc2ccccc2c1)c1c(C(F)(F)F)n([O-])c2cc(C(F)(F)F)ccc2[n+]1=O` has a GI50 [1] of 8140 nM, a GI50 [2] of 1630 nM and a TGI [2] of 3490 nM. The GI50 [3] was 1480 nM, the TGI [3] was 2970 nM and the GI50 [4] was 2410 nM. The TGI [4] was 5870 nM, the GI50 [5] was 1680 nM and the TGI [5] was 3810 nM. The GI50 [6] was 1750 nM, the TGI [6] was 3290 nM and the GI50 [7] was 1500 nM. For the same compound, the TGI [7] was 2880 nM, the GI50 [8] was 1700 nM and the TGI [8] was 3250 nM. It also gave a GI50 [9] of 1310 nM, a TGI [9] of 3380 nM and a GI50 [10] of 1660 nM. The TGI [10] was 3440 nM, the GI50 [11] was 2020 nM and the TGI [11] was 5200 nM. The GI50 [55] was 1360 nM, the TGI [55] was 2700 nM and the GI50 [56] was 1250 nM. It also gave a TGI [56] of 3370 nM, a GI50 [12] of 1880 nM and a TGI [12] of 3430 nM. For the same compound, the GI50 [13] was 1680 nM, the TGI [13] was 3060 nM and the GI50 [14] was 1220 nM. For the same compound, the TGI [14] was 2690 nM, the GI50 [15] was 1820 nM and the TGI [15] was 3370 nM. For the same compound, the GI50 [16] was 1740 nM, the TGI [16] was 3460 nM and the GI50 [17] was 1500 nM. The TGI [17] was 3160 nM, the GI50 [18] was 1920 nM and the TGI [18] was 3720 nM. For the same compound, the GI50 [19] was 1740 nM, the TGI [19] was 3380 nM and the GI50 [57] was 1710 nM. The TGI [57] was 3360 nM, the TGI [20] was over 22200 nM and the GI50 [21] was 2030 nM. For the same compound, the TGI [21] was 4790 nM, the GI50 [22] was 1220 nM and the TGI [22] was 3510 nM. The GI50 [23] was 1670 nM, the TGI [23] was 3120 nM and the GI50 [24] was 1660 nM. It also gave a TGI [24] of 3510 nM, a GI50 [58] of 1670 nM and a TGI [58] of 3360 nM. The GI50 [25] was 1550 nM, the TGI [25] was 3090 nM and the GI50 [26] was 1620 nM. It also gave a TGI [26] of 3150 nM, a GI50 [28] of 1710 nM and a TGI [28] of 3310 nM. It also gave a GI50 [30] of 1570 nM, a TGI [30] of 3430 nM and a GI50 [31] of 1450 nM. For the same compound, the TGI [31] was 2840 nM, the GI50 [32] was 1630 nM and the TGI [32] was 3220 nM. The GI50 [33] was 1540 nM, the TGI [33] was 3590 nM and the GI50 [34] was 1410 nM. It also gave a TGI [34] of 2780 nM, a GI50 [35] of 621 nM and a TGI [35] of 1450 nM. The GI50 [36] was 1380 nM, the TGI [36] was 2900 nM and the GI50 [37] was 860 nM. For the same compound, the TGI [37] was 2640 nM, the GI50 [38] was 1390 nM and the TGI [38] was 2790 nM. It also gave a GI50 [39] of 2080 nM, a TGI [39] of 4800 nM and a GI50 [40] of 1430 nM. For the same compound, the TGI [40] was 2900 nM, the GI50 [41] was 1690 nM and the TGI [41] was 3400 nM. For the same compound, the GI50 [42] was 1550 nM, the TGI [42] was 3060 nM and the GI50 [43] was 1730 nM. It also gave a TGI [43] of 3130 nM, a GI50 [44] of 1690 nM and a TGI [44] of 3220 nM. The GI50 [45] was 1490 nM, the TGI [45] was 3500 nM and the GI50 [46] was 2020 nM. For the same compound, the TGI [46] was 3860 nM, the GI50 [47] was 1790 nM and the TGI [47] was 3230 nM. For the same compound, the TGI [48] was 385 nM, the GI50 [49] was 1710 nM and the TGI [49] was 3230 nM. The GI50 [50] was 1560 nM, the TGI [50] was 3050 nM and the GI50 [51] was 1490 nM. For the same compound, the TGI [51] was 3900 nM, the GI50 [52] was 1920 nM and the TGI [52] was 4050 nM. For the same compound, the GI50 [53] was 1340 nM, the TGI [53] was 2750 nM and the GI50 [54] was 1650 nM. The TGI [54] was 3100 nM.

Reference: PubChem BioAssay (NCI)
